Experimental data taken from PubChem BioAssay (NCI).
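Cells were grown in 96-well plates and exposed to each compound for 48 hours at five concentrations; endpoints were interpolated linearly between bracketing concentrations, or set to the highest concentration if not reached. At the TGI there is no net growth.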

Key:
Assay in all cases: NCI tumour cell line growth inhibition, 48 h
786-0 renal = test system: 786-0 renal
A549 NSCLC = test system: A549 NSCLC
ACHN renal = test system: ACHN renal
BT-549 breast = test system: BT-549 breast
CAKI-1 renal = test system: CAKI-1 renal
CCRF-CEM leukemia = test system: CCRF-CEM leukemia
COLO 205 colon = test system: COLO 205 colon
DU-145 prostate = test system: DU-145 prostate
EKVX NSCLC = test system: EKVX NSCLC
HCT-116 colon = test system: HCT-116 colon
HCT-15 colon = test system: HCT-15 colon
HL-60(TB) leukemia = test system: HL-60(TB) leukemia
HOP-62 NSCLC = test system: HOP-62 NSCLC
HS 578T breast = test system: HS 578T breast
HT29 colon = test system: HT29 colon
IGROV1 ovarian = test system: IGROV1 ovarian
K-562 leukemia = test system: K-562 leukemia
KM12 colon = test system: KM12 colon
LOX IMVI melanoma = test system: LOX IMVI melanoma
M14 melanoma = test system: M14 melanoma
MALME-3M melanoma = test system: MALME-3M melanoma
MCF7 breast = test system: MCF7 breast
MDA-MB-231 breast = test system: MDA-MB-231 breast
MDA-MB-435 = test system: MDA-MB-435
MDA-N = test system: MDA-N
MOLT-4 leukemia = test system: MOLT-4 leukemia
NCI-H226 lung = test system: NCI-H226 lung
NCI-H23 lung = test system: NCI-H23 lung
NCI-H460 lung = test system: NCI-H460 lung
NCI-H522 lung = test system: NCI-H522 lung
NCI/ADR-RES ovarian = test system: NCI/ADR-RES ovarian
OVCAR-3 ovarian = test system: OVCAR-3 ovarian
OVCAR-4 ovarian = test system: OVCAR-4 ovarian
OVCAR-5 ovarian = test system: OVCAR-5 ovarian
OVCAR-8 ovarian = test system: OVCAR-8 ovarian
PC-3 prostate = test system: PC-3 prostate
RPMI-8226 leukemia = test system: RPMI-8226 leukemia
RXF 393 renal = test system: RXF 393 renal
SF-268 CNS = test system: SF-268 CNS
SF-295 CNS = test system: SF-295 CNS
SK-MEL-28 melanoma = test system: SK-MEL-28 melanoma
SK-MEL-5 melanoma = test system: SK-MEL-5 melanoma
SK-OV-3 ovarian = test system: SK-OV-3 ovarian
SN12C renal = test system: SN12C renal
SNB-19 CNS = test system: SNB-19 CNS
SNB-75 CNS = test system: SNB-75 CNS
T-47D breast = test system: T-47D breast
TK-10 renal = test system: TK-10 renal
U251 CNS = test system: U251 CNS
UACC-257 melanoma = test system: UACC-257 melanoma
UACC-62 melanoma = test system: UACC-62 melanoma
UO-31 renal = test system: UO-31 renal
A498 renal = test system: A498 renal
SF-539 CNS = test system: SF-539 CNS
SK-MEL-2 melanoma = test system: SK-MEL-2 melanoma
SR leukemia = test system: SR leukemia
SW-620 colon = test system: SW-620 colon
HOP-92 NSCLC = test system: HOP-92 NSCLC

Measured: TGI

O=c1[nH]c(=O)n(C2CC(O)C(CO)O2)cc1OCCCc1ccccc1 (stereo not drawn)
not listed: A498 renal | SF-539 CNS | SK-MEL-2 melanoma | SR leukemia | SW-620 colon | HOP-92 NSCLC
> 100 µM: all other assays above

NC(=O)C1=NNc2ccccc2C(=O)N1c1ccccc1
not listed: HL-60(TB) leukemia | K-562 leukemia | NCI-H23 lung | HOP-92 NSCLC
> 100 µM: all other assays above

CCSCC(N)C(=O)O (stereo not drawn)
not listed: K-562 leukemia | MOLT-4 leukemia | SF-539 CNS
> 100 µM: all other assays above

C1CCN(CCC2CCCCN2)CC1 (stereo not drawn)
not listed: UO-31 renal
> 100 µM: all other assays above
